Experimental data as given in US7666644B2, “Glyphosate-N-acetyltransferase (GAT) genes” (Verdia, Inc., priority 2004, dated 2010).
Residue numbers refer to the chain shown, from its start.

Key:
[1] = tested on: Nicotiana tabacum L. Xanthi leaf explants; experiment: Tobacco shoot regeneration with glyphosate selection after Agrobacterium-mediated transformation; assay type: cell-based; settings: explants lacking a GAT gene
Source text: Agrobacterium-mediated transformation of plant cells occurs at low efficiencies. To allow propagation of transformed cells while inhibiting proliferation of non-transformed cells, a selectable marker is needed. Antibiotic markers for kanamycin and hygromycin and the herbicide modifying gene bar, which detoxifies the herbicidal compound phosphinothricin, are examples of selectable markers used in plants (Methods in Molecular Biology, 1995, 49:9-18). […] An evolved GAT gene (0—5B8), SEQ ID NO:190, was cloned between a plant promoter (enhanced strawberry vein banded virus) and a […] terminator and introduced into the T-DNA region of the binary vector pMAXY3793 suitable for transformation of plant cells via Agrobacterium tumefaciens EHA105 as shown in FIG. 12. A screenable GUS marker was present in the T-DNA to allow confirmation of transformation. Transgenic tobacco shoots were generated using glyphosate as the only selecting agent.
Axillary buds of Nicotiana tabacum L. Xanthi were subcultured on half-strength MS medium with sucrose (1.5%) and Gelrite (0.3%) under 16-h light (35-42 μEinsteins m^−2 s^−1, cool white fluorescent lamps) at 24° C. every 2-3 weeks. Young leaves were excised from plants after 2-3 weeks subculture and were cut into 3×3 mm segments. A. tumefaciens EHA 105 was inoculated into LB medium and grown overnight to a density of A600=1.0. […]

[2] = tested on: GAT polypeptide (glyphosate-N-acetyltransferase), SEQ ID NO:445; experiment: Standard spectrophotometric kcat and KM determination (Example 7); assay type: biochemical; settings: 20 mM HEPES pH 6.8, 10% ethylene glycol, 0.2 mM acetyl CoA, about 23° C.
Protocol: (§1) KM was calculated from the initial reaction rates obtained from concentrations of glyphosate ranging from 0.125 to 10 mM, using the Lineweaver-Burke transformation of the Michaelis-Menten equation. kcat/KM was determined by dividing the value determined for kcat by the value determined for KM.

[3] = tested on: GAT 20-30C6 (SEQ ID NO: 683) variant H138S; experiment: GAT kinetics, 0 KCl, Bradford (Example 20, Table 12); assay type: biochemical; settings: Bradford protein assay
[4] = tested on: native or low activity GAT enzymes (glyphosate-N-acetyltransferase); experiment: Kinetics typical of native or low activity GAT enzymes (Example 4); assay type: biochemical
[5] = tested on: high activity GAT enzymes (glyphosate-N-acetyltransferase); experiment: Kinetics typical of high activity GAT enzymes (Example 5); assay type: biochemical
[6] = biological target: T1, Bacillus licheniformis strain B6 glyphosate-N-acetyltransferase (GAT), native, SEQ ID NO:7 (Bacillus paralicheniformis, UniProt A0AAW6KBE1); experiment: Apparent KM and kcat of purified GAT (Example 2); assay type: biochemical
T1 construct: untagged
Protocol: Lysis of the cells was effected by the addition of 1 ml of the following buffer to 0.2 g of cells: 25 mM HEPES, pH 7.3, 100 mM KCl and 10% methanol (HKM) plus 0.1 mM EDTA, 1 mM DTT, 1 mg/ml chicken egg lysozyme, and a protease inhibitor cocktail obtained from Sigma and used according to the manufacturer's recommendations. After 20 minutes incubation at room temperature (e.g., 22-25° C.), lysis was completed with brief sonication. The lysate was centrifuged and the supernatant was desalted by passage through Sephadex G25 equilibrated with HKM. Partial purification was obtained by affinity chromatography on CoA Agarose (Sigma). The column was equilibrated with HKM and the clarified extract was allowed to pass through under hydrostatic pressure.
Purification to homogeneity was obtained by gel filtration of the partially purified protein through Superdex 75 (Pharmacia).
Initial reaction rates were determined using mass spectrometric detection of N-acetyl glyphosate. Five μl were repeatedly injected into the instrument and reaction rates were obtained by plotting reaction time vs area of the integrated peak (FIG. 6).

[7] = tested on: GAT 20-30C6 (SEQ ID NO: 683) variant D34A; experiment: GAT kinetics, 0 KCl, Bradford (Example 20, Table 12); assay type: biochemical; settings: Bradford protein assay
Protocol: as §1
(§2) The amino acids aspartic acid (Asp, D), histidine (His, H) and cysteine (Cys, C) are known to be associated with the active sites of various acetyltransferase enzymes. To determine if any such residues play a role in GAT activity, all D, C, and H residues of GAT20-30C6 (SEQ ID NO:683) were individually mutated to alanine (Ala, A) and the mutated enzymes assayed for N-acetylglyphosate activity.

[8] = tested on: GAT 20-30C6 (evolved glyphosate-N-acetyltransferase), SEQ ID NO: 683; experiment: as above; assay type: biochemical; settings: Bradford protein assay
Protocol: as §1, §2

[9] = tested on: GAT 20-30C6 (SEQ ID NO: 683) variant H138A; experiment: as above; assay type: biochemical; settings: Bradford protein assay
Protocol: as §1, §2

[10] = tested on: GAT 20-30C6 (SEQ ID NO: 683) variant H41A; experiment: as above; assay type: biochemical; settings: Bradford protein assay
Protocol: as §1, §2

[11] = tested on: GAT 20-30C6 (SEQ ID NO: 683) variant H138R; experiment: as above; assay type: biochemical; settings: Bradford protein assay
Protocol: as §1, §2

[12] = GAT activity with substrate phospho-L-serine (DTNB); assay type: biochemical
Protocol: (§3) GAT activity of several GAT polypeptides of the present invention was evaluated with respect to a number of amino acid substrates. The GAT polypeptide, AcCoA and amino substrate were incubated in 25 mM Hepes, pH 6.8, 10% ethylene glycol in the wells of a 96-well polystyrene plate. After 30 minutes, the reactions were stopped by the addition of 30 μl of 10 mM 5,5′-dithiobis-2-nitrobenzoate (DTNB) in 500 mM Tris, pH 7.5. After 2 minutes, absorbance was read at 412 nm in a Spectramax Plus plate reader (Molecular Devices, Sunnyvale, Calif.).

[13] = Transfer of the propionyl group from propionyl CoA to glyphosate, DTNB detection; assay type: biochemical; settings: 1 mM propionyl CoA, 5 mM glyphosate or no glyphosate, 30 minutes
Protocol: The ability of GAT variants (B6 (SEQ ID NO:7), 0—6D10 (SEQ ID NO:448), 17-15H3 (SEQ ID NO:601), and 20-8H12c (SEQ ID NO:817)) to transfer the propionyl group from propionyl CoA to glyphosate was tested in reaction mixtures containing 5 mM glyphosate or no glyphosate. Propionyl CoA was present at 1 mM. After 30 minutes the reactions were terminated and the presence of free […] was determined by the addition of DTNB.

[14] = GAT activity of native YitI; assay type: biochemical
[15] = GAT activity with substrate L-aspartate (DTNB); assay type: biochemical; settings: for kcat/KM % of glyph: Substrate Aspartate
Protocol: as §3

[16] = GAT activity with substrate L-serine (DTNB); assay type: biochemical; settings: for kcat/KM % of glyph: Substrate Serine
Protocol: as §3

[17] = GAT activity with substrate glyphosate (amino acid substrate study, DTNB); assay type: biochemical; settings: Substrate Glyph, relative to 401
Protocol: as §3

[18] = assay type: physicochemical; settings: buffer, pH 7.2
Protocol: The half lives of several GAT polypeptides were also measured at 37.5° C. according to the following procedure. GAT polypeptides 401 (SEQ ID NO: 6), 17-15H3 (SEQ ID NO: 601), 20-8H12 (SEQ ID NO: 739), 22-13B12 (SEQ ID NO: 781), 22-15B4 (SEQ ID NO: 946) and 22-18C5 (SEQ ID NO: 795) were incubated in a matrix of 25 mM Hepes, pH 7.2, 10 mM KCl and 10% methanol (“HKM”). At various timepoints, aliquots were withdrawn and assayed in triplicate at 22° C. using the continuous spectrophotometric assay described in Example 7 using saturating concentrations of glyphosate (20 mM for 401, 5 mM for the rest) and AcCoA (167 uM). The standard error at each time point averaged about 2.9%. GAT activity was plotted as a function of incubation time and the data was fitted to a curve for exponential decay (y=e^−x), where y is enzyme activity and x is time in hours, from which half life was calculated.

maize plants = experiment: Effect of temperature variation on glyphosate tolerance of T1 maize expressing GAT transgenes; assay type: in vivo; settings: cool/cold, warm and hot conditions, 0×, 4×, 6×, 8× glyphosate at V2, scored 5 and 14 days
Protocol: Maize plants expressing GAT variant transgenes 10—4F2 (SEQ ID NO:203), 17-15H3 (SEQ ID NO:549), and 18-28D9b (SEQ ID NO:814) were produced using the methods described in Example 13. The effect of temperature on glyphosate tolerance was evaluated in T1 plants. The T1 plants were grown in cool/cold (day 14° C., night 8° C.), warm (day 28° C., night 20° C.), and hot (day 37° C., night 20° C.) conditions. T1 plants were sprayed at V2 with four different glyphosate spray treatments (0×, 4×, 6×, and 8×). Plants were scored at 5 and 14 days after treatment for leaf discoloration and plant height comparisons as described in Example 13.

[19] = Kinetics of D, C, H residue mutants of GAT20-30C6; assay type: biochemical; settings: 0 KCl; Bradford protein assay
Source text: as §2

O=C(O)CNCP(=O)(O)O [Glyphosate, N-phosphonomethylglycine]
Glyphosate concentrations that completely inhibited any shoot formation [1]: greater than 20 uM

O=C(O)CNCP(=O)(O)O [glyphosate, N-phosphonomethylglycine]
Km [2]: 500 µM
kcat [2]: 5.37 s⁻¹
Km [3]: 7100 µM
kcat [3]: 0.0892 s⁻¹
kcat [4]: approximately 1 min^−1
Km ([4]; read-out: KM for glyphosate): 1500 to 10000 µM
Km [5]: < 100 µM
kcat [5]: up to 400 min^−1
kcat ([6]; from Vmax at known enzyme concentration, 5 mM glyphosate, varying Acetyl CoA): 0.1 s⁻¹
Km ([6]; read-out: KM for glyphosate, apparent, saturating (200 μM) Acetyl CoA, 5 mM morpholine pH 7.7, 20% ethylene glycol): 2900 ± 200 µM
Km [7]: 2330 µM
kcat [7]: 2.12 s⁻¹
Km [8]: 182 µM
kcat [8]: 6.43 s⁻¹
kcat [9]: <0.00033 s⁻¹
Km [10]: 4800 µM
kcat [10]: 3.47 s⁻¹
Km [11]: 17800 µM
kcat [11]: 0.738 s⁻¹

B1: B6: native GAT enzyme isolated from B. licheniformis strain B6, SEQ ID NO:7 (protein)
chain: MIEVKPINAEDTYEIRHRILRPNQPLEACKYETDLLGGTFHLGGYYRDRLISIASFHQAEHSELEGQKQYQLRGMATLEGYREQKAGSTLIRHAEELLRKKGADLLWCNARTSVSGYYKKLGFSEQGGVYDIPPIGPHILMYKKLT
modifications: Unidentified microorganism derived from soil sample.; B6 GAT
activity with phospho-L-serine compared with glyphosate [12]: about 2 times
glyphosate-dependent hydrolysis of propionyl CoA [13]: showed glyphosate-dependent hydrolysis of propionyl CoA

B2: YitI: most closely related sequence available in Genbank, yitI from Bacillus subtilis (protein, UniProt O06744 1-149, looked up)
Uncharacterized …: MLEVKTISVEDTYEIRHRILRPHQSIEQCKYKEDHAEGSFHLGVFYDGTLISIASFSPQSQPLLTEASAYRLRGMATLEGYRDQKAGSTLIKHAEHKLAESGVQAVWCNARHHVKGYYAKLGWKELGEPFDIPGIGNHIVMYKTLRTSR
GAT activity [14]: detectable GAT activity

B3: 25-8H7: further evolved GAT enzyme, SEQ ID NO:907; gene GAT25-8H7/4618 SEQ ID NO:906 (protein)
chain: MIEVKPINAEDTYDLRHRVLRPNQPIEACMFESDLTRSAFHLGGFYGGKLISVASFHQAEHSELQGKKQYQLRGVATLEGYREQKAGSSLVKHAEEILRKRGADMIWCNARTSASGYYRKLGFSEQGEVFDTPPVGPHILMYKRIT
modifications: 25-8H7
increase in activity with aspartate compared to native GAT polypeptide [15]: 40 fold
kcat/KM % of glyph [15]: 0.520%
activity with respect to serine and phosphoserine compared to native GAT polypeptide [16]: loss of activity
kcat/KM % of glyph [16]: 0.00855%
kcat/KM Fold imp. [17]: 7031 fold

B4: 17-15H3: evolved GAT; polypeptide SEQ ID NO:601, transgene SEQ ID NO:549 (protein)
chain: MIEVKPINAEDTYELRHRILRPNQPIEACMFESDLLRGAFHLGGYYGGKLISIASFHQAEHSELQGQKQYQLRGMATLEGYREQKAGSSLIKHAEEILRKRGADLLWCNARTSASGYYKKLGFSEQGEVFDTPPVGPHILMYKRIT
modifications: D_S00260796_17-15H3
increase in activity with aspartate compared to native GAT polypeptide [15]: 40 fold
kcat/KM % of glyph [15]: 3.24%
Half-life [18]: 45 h
activity with respect to serine and phosphoserine compared to native GAT polypeptide [16]: loss of activity
kcat/KM % of glyph [16]: 0.0882%
kcat/KM Fold imp. [17]: 1086 fold
effect of growth temperature on glyphosate tolerance (maize plants): not adversely effected
glyphosate-dependent hydrolysis of propionyl CoA [13]: showed glyphosate-dependent hydrolysis of propionyl CoA

B5: 20-30C6: evolved GAT enzyme, SEQ ID NO:683 (protein)
chain: B4 chain with I19V, Y45F, I53V, S62T, M75V, I91V, L105I
modifications: D_GE002283_GAT20-30C6
% kcat/Km of 20-30C6 [19]: 100%
